Test results from ChEMBL document CHEMBL3600320, “An oxidative coupling product of luteolin with cysteine ester and its enhanced inhibitory activity for xanthine oxidase” (Bioorg Med Chem Lett, 2015).

What was measured:
[1] = target: T1, Xanthine dehydrogenase/oxidase (Homo sapiens, UniProt P47989); assay: Inhibition of xanthine oxidase (unknown origin) using xanthine as substrate at 33 to 100 umol/L after 10 mins by HPLC method relative to control
[2] = target: T1, Xanthine dehydrogenase/oxidase; assay: Inhibition of xanthine oxidase (unknown origin) using xanthine as substrate after 10 mins by HPLC method

T1 sequence (P47989 whole entry): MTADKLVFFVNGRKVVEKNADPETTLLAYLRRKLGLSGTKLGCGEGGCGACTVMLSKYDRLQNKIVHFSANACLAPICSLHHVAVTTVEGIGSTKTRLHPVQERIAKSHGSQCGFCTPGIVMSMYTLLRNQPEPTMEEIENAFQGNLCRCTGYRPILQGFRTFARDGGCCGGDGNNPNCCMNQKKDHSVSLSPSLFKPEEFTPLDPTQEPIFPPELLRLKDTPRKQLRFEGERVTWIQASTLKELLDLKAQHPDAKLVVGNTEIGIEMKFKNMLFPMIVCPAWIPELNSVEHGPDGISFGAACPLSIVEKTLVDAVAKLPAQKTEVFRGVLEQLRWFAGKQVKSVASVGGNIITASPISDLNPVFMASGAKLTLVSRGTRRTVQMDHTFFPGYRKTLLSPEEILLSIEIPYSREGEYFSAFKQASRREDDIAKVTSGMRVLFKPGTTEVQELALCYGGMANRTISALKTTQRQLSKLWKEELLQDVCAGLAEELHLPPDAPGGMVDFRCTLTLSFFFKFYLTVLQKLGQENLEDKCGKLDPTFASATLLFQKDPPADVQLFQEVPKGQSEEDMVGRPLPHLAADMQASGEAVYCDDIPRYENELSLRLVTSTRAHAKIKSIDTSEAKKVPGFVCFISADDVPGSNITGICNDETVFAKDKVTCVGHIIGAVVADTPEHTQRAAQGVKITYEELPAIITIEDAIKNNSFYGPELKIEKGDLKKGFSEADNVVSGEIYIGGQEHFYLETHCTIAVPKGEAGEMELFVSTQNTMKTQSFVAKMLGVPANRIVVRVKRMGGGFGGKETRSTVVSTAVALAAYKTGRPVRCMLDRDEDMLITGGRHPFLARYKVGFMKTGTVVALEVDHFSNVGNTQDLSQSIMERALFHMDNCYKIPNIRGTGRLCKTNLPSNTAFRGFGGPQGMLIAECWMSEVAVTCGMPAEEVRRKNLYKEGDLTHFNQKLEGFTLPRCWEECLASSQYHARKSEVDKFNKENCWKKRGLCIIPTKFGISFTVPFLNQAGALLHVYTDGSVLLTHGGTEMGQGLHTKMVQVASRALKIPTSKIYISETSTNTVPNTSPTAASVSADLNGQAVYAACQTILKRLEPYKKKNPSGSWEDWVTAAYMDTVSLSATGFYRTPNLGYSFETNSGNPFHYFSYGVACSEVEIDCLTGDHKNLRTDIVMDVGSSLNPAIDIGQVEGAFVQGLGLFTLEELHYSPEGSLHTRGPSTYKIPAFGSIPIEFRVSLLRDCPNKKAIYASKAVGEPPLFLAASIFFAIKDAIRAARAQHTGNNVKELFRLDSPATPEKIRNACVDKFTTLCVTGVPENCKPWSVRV

| inhibition (INH) ([2]; human, 10 min) | SMILES | inhibition (INH) [1] | IC50 [2] |
| --- | --- | --- | --- |
| – | O=c1c(O)c(-c2ccc(O)cc2)oc2cc(O)cc(O)c12 [KAEMPFEROL] | > 50% | – |
| Dose-dependent effect | CCOC(=O)C1=Nc2c(O)ccc(-c3cc(=O)c4c(O)cc(O)cc4o3)c2SC1 | – | 1.7 µM |
| – | O=c1c(O)c(-c2cc(O)c(O)c(O)c2)oc2cc(O)cc(O)c12 [MYRICETIN] | > 50% | – |
| – | O=c1cc(-c2ccc(O)c(O)c2)oc2cc(O)cc(O)c12 [LUTEOLIN] | > 50% | 7.8 µM |
| – | O=c1c(O)c(-c2ccc(O)c(O)c2)oc2cc(O)cc(O)c12 [QUERCETIN] | > 50% | – |
